This note sets out measurements from PMC12224939, “Trypstatin as a Novel TMPRSS2 Inhibitor with Broad‐Spectrum Efficacy against Corona and Influenza Viruses” (Advanced Science, 2025).

Where a name gives a salt, the structure may show the parent alone. Read-outs that look alike come from different tables or passages of the source. Bridge positions count the residues as written; N and C are the ends. Ends that are not written are not given here.

In assay [1] the test system is lentiviral pseudoparticles harboring the SARS-CoV-2 Hu-1 spike.
Assay [2] shares this test system. Briefly: microbe, parasite or virus in culture. To be noted: Severe acute respiratory syndrome coronavirus 2, Caco-2, 48 h, read-out: IC50, SARS-CoV-2 spike-driven pseudoparticle entry, Caco-2 cells, Hu-1 spike, luciferase 48 h after transduction.
Assay [3] concerns SARS-CoV-2 B.1 D614G. To be noted: read-out: anti-viral IC50 (±SEM), SARS-CoV-2 B.1.
The mark [4] stands for this setting: read-out: IC50, SARS-CoV-2 spike-driven pseudoparticle entry, Caco-2 cells, luciferase 48 h after transduction.

What is called IC50 is the concentration at which inhibition is half-maximal.

As for `CC(=O)NCC(=O)N[C@@H](CCC(N)=O)C(=O)N[C@@H](Cc1ccccc1)C(=O)N[C@@H](CCCN=C(N)N)C(=O)c1nc2ccccc2s1` [MM3122, reference compound], in assay [1] (setting [4]), the IC50 came out at 31.2 ± 3 nM. The same measure, in the same setting: next, Aprotinin: 427 ± 30 nM; “CNLPIVRGPCRAFIQLWAFDAVKGKCVLFPYGGCQGNGNKFYSEKECREYC (disulfide 1-51, 10-34, 26-47) [Bikunin KD 2]”: 170 ± 20 nM. In the case of `N=C(N)c1ccc2cc(OC(=O)c3ccc(N=C(N)N)cc3)ccc2c1` [Nafamostat mesylate], the IC50 in assay [2] came out at 14.4 ± 1 nM. With `CN(C)C(=O)COC(=O)Cc1ccc(OC(=O)c2ccc(NC(=N)N)cc2)cc1` [Camostat mesylate], the results for the IC50 in assay [3] and in assay [2] were 4.1 ± 2 nM and 93.8 ± 6 nM, respectively. With Antitrypsin, the concentration for half-maximal inhibition (IC50) in assay [1] (read-out: IC50, SARS-CoV-2 spike-driven pseudoparticle entry, Caco-2 cells, luciferase 48 h after transduction, listed as α‐1‐antitrypsin) stood at 27400 ± 4100 nM.

B1: Bikunin (protein, UniProt P02760 206-352, looked up)
Inter-alpha-trypsin inhibitor …: AVLPQEEEGSGGGQLVTEVTKKEDSCQLGYSAGPCMGMTSRYFYNGTSMACETFQYGGCMGNGNNFVTEKECLQTCRTVAACNLPIVRGPCRAFIQLWAFDAVKGKCVLFPYGGCQGNGNKFYSEKECREYCGVPGDGDEELLRFSN
modifications: Inter-alpha-trypsin inhibitor light chain
On to B1, for which the IC50 in assay [1] (setting [4]) was found to be 6100 ± 1200 nM.
